Experimental data taken from US11136311B2, “Heteroaromatic derivatives as NIK inhibitors” (Janssen Pharmaceutica NV, priority 2016, dated 2021).
Read-outs that look alike come from different tables or passages of the source.

Columns and labels:
[1] = target: recombinant human NF-kappaB-inducing kinase (NIK/MAP3K14) (Homo sapiens (Human), UniProt Q99558); assay: Inhibition of auto-phosphorylation of recombinant human NIK/MAP3K14 activity (AlphaScreen); assay type: biochemical; conditions: averaged values over all measurements on all batches
Sequence of recombinant human NF-kappaB-inducing kinase (NIK/MAP3K14) (Q99558 whole entry): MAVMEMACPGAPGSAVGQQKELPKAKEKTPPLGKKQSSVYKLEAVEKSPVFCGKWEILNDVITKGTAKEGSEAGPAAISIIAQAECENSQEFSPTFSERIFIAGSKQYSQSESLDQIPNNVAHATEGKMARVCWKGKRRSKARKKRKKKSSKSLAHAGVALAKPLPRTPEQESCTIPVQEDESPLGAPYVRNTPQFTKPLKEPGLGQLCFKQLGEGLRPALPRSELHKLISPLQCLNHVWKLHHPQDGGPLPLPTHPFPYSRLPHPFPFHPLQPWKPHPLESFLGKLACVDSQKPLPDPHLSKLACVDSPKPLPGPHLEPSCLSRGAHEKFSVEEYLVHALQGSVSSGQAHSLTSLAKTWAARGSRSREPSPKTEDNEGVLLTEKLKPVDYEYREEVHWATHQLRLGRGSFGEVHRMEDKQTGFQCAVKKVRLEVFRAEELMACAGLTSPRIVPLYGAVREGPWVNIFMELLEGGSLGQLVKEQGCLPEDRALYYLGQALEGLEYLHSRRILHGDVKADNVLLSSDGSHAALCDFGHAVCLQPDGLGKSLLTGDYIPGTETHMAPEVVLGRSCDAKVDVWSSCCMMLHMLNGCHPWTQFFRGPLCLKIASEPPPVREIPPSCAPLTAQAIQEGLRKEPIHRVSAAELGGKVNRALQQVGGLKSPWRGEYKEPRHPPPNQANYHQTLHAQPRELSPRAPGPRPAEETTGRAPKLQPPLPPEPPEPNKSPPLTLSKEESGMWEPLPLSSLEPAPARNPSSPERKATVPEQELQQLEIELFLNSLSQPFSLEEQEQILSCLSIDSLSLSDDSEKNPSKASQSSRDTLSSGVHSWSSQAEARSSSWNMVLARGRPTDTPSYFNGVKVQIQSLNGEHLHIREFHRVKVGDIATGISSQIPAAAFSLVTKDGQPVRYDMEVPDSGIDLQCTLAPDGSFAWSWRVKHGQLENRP
Protocol: Inhibition of auto-phosphorylation of recombinant human NF-kappaB-inducing kinase (NIK/MAP3K14) activity (AlphaScreen®)
NIK/MAP3K14 auto-phosphorylation activity was measured using the AlphaScreen® (αscreen) format (Perkin Elmer). All compounds tested were dissolved in dimethyl sulfoxide (DMSO) and further dilutions were made in assay buffer. Final DMSO concentration was 1% (v/v) in assays. Assay buffer was 50 mM Tris pH 7.5 containing 1 mM EGTA (ethylene glycol tetraacetic acid), 1 mM DTT (dithiothreitol), 0.1 mM Na3VO4, 5 mM MgCl2, 0.01% Tween® 20. Assays were carried out in 384 well Alphaplates (Perkin Elmer). Incubations consisted of compound, 25 microM Adenosine-5′-triphosphate (ATP), and 0.2 nM NIK/MAP3K14. Incubations were initiated by addition of GST-tagged NIK/MAP3K14 enzyme, carried out for 1 h at 25° C. and terminated by addition of stop buffer containing anti-phospho-IKK Ser176/180 antibody. Protein A Acceptor and Glutathione-Donor beads were added before reading using an EnVision® Multilabel Plate Reader (Perkin Elmer). Signal obtained in the wells containing blank samples was subtracted from all other wells and IC50's were determined by fitting a sigmoidal curve to % inhibition of control versus Log10 compound concentration.

[2] = test system: JJN-3 cells; assay: Antiproliferative activity on JJN-3 (NIK translocated) multiple myeloma cells (CellTiter-Glo); assay type: cell-based, human; conditions: JJN-3 (NIK translocated) cells, 96 hr, averaged values, read-out: JJN-3 Proliferation inhibition (IC50 (nM))
Protocol: (§1) Determination of antiproliferative activity on JJN-3 (NIK translocated) and KMS12-BM (NIK WT) multiple myeloma cells
(§2) All compounds tested were dissolved in DMSO and further dilutions were made in culture medium. Final DMSO concentration was 0.3% (v/v) in cell proliferation assays. Viability was assessed using CellTiter-Glo cell viability assay kit (Promega). The human JJN-3 and KMS12-BM cells (DSMZ) were cultured in RPMI 1640 medium supplemented with 2 mM L-glutamine, and 10% fetal calf serum (PAA). Cells were routinely kept as suspension cells at 37° C. in a humidified 5% CO2 atmosphere. Cells were passaged at a seeding density of 0.2×10^6/ml twice a week. Cells were seeded in black tissue culture treated 96-well plates (Perkin Elmer). Densities used for plating ranged from 15000 (JJN3) to 20000 (KMS12BM) cells per well in a total volume of 135 μl medium. Drugs and/or solvents were added (15 μl) to a final volume of 150 μl. Following 96 hr of treatment, plates were removed from the incubator and allowed to equilibrate to room temperature for approx 10 min. 75 μl CellTiter-Glo reagent was added to each well that was then covered (Perkin Elmer Topseal) and shaken on plate shaker for 10 min. Luminescence was measured on a HTS Topcount (Perkin Elmer). Within an experiment, the results for each treatment were the mean of 2 replicate wells. For initial screening purposes, compounds were tested using a 9 point dilution curve (serial 1:3 dilutions). For each experiment, controls (containing no drug) and a blank incubation (containing cells read at the time of compound addition) were run in parallel. The blank value was subtracted from all control and sample values. For each sample, the mean value for cell growth (in relative light units) was expressed as a percentage of the mean value for cell growth of the control.

[3] = test system: KMS12-BM cells; assay: Antiproliferative activity on KMS12-BM (NIK WT) multiple myeloma cells (CellTiter-Glo); assay type: cell-based, human; conditions: KMS12-BM (NIK WT) cells, 96 hr, averaged values, read-out: KMS-12 Proliferation inhibition (IC50 (nM))
Protocol: as §1, §2

COCCn1nc(C2CCOCC2)cc1Nc1nccc(-c2cc(C#N)c3c(c2)[C@@](C)(CO)CN3)n1 [Compound 66]
IC50 [1]: 13 nM
IC50 ([2]; Homo sapiens, JJN-3, 96 h): 324 nM
IC50 ([3]; Homo sapiens, KMS-12-BM, 96 h): > 10000 nM

Cn1nc(C2CCOCC2)cc1Nc1nccc(-c2cc(C#N)c3c(c2)[C@@](C)(CO)CN3)n1 [Compound 67]
IC50 [1]: 1.6 nM
IC50 ([2]; Homo sapiens, JJN-3, 96 h): 141 nM
IC50 ([3]; Homo sapiens, KMS-12-BM, 96 h): 912 nM

Cc1nn(C2CCOCC2)cc1Nc1nccc(-c2cc(C#N)c3c(c2)[C@@](C)(CO)CN3)n1 [Compound 74]
IC50 [1]: 3 nM
IC50 ([2]; Homo sapiens, JJN-3, 96 h): 324 nM
IC50 ([3]; Homo sapiens, KMS-12-BM, 96 h): ~3890 nM

Cc1nn(CC2CCOCC2)cc1Nc1nccc(-c2cc(C#N)c3c(c2)[C@@](C)(CO)CN3)n1 [Compound 75]
IC50 [1]: 13 nM
IC50 ([2]; Homo sapiens, JJN-3, 96 h): 2090 nM
IC50 ([3]; Homo sapiens, KMS-12-BM, 96 h): ~6030 nM

Cc1cc(Nc2nccc(-c3cc(C#N)c4c(c3)[C@@](C)(CO)CN4)n2)n(CC(=O)N(C)C(C)C)n1 [Compound 79]
IC50 [1]: 8.3 nM
IC50 ([2]; Homo sapiens, JJN-3, 96 h): 2240 nM
IC50 ([3]; Homo sapiens, KMS-12-BM, 96 h): > 10000 nM

Cc1cc(Nc2nccc(-c3cc(C#N)c4c(c3)[C@@](C)(CO)CN4)n2)n(CC(=O)N(C2CC2)C2CC2)n1 [Compound 80]
IC50 [1]: 3.9 nM
IC50 ([2]; Homo sapiens, JJN-3, 96 h): 1100 nM
IC50 ([3]; Homo sapiens, KMS-12-BM, 96 h): 6170 nM

Cn1cc(Nc2nccc(-c3cc(C#N)c4c(c3)[C@@](C)(CO)CN4)n2)c(CN2CCCC2=O)n1 [Compound 90]
IC50 [1]: 5.7 nM
IC50 ([2]; Homo sapiens, JJN-3, 96 h): 1550 nM
IC50 ([3]; Homo sapiens, KMS-12-BM, 96 h): 5130 nM

Cc1nnc(Nc2nccc(-c3cc(C#N)c4c(c3)C(C)(CO)CN4)n2)o1 (stereo not drawn) [Compound 142]
IC50 [1]: 42 nM
IC50 ([2]; Homo sapiens, JJN-3, 96 h): > 10000 nM
IC50 ([3]; Homo sapiens, KMS-12-BM, 96 h): ~9770 nM

Cn1ccc(Nc2ncc(F)c(-c3cc(C#N)c4c(c3)C(C)(CO)CN4)n2)n1 (stereo not drawn) [Compound 143]
IC50 [1]: 1.3 nM
IC50 ([2]; Homo sapiens, JJN-3, 96 h): ~81 nM
IC50 ([3]; Homo sapiens, KMS-12-BM, 96 h): 204 nM

Cn1ccc(Nc2ncc(F)c(-c3cc(C#N)c4c(c3)[C@@](C)(CO)CN4)n2)n1 [Compound 144]
IC50 [1]: 2 nM
IC50 ([2]; Homo sapiens, JJN-3, 96 h): 36 nM
IC50 ([3]; Homo sapiens, KMS-12-BM, 96 h): 44 nM

Cc1csc(Nc2nccc(-c3cc(C#N)c4c(c3)[C@@](C)(CO)CN4)n2)n1 [Compound 145]
IC50 [1]: 1.5 nM
IC50 ([2]; Homo sapiens, JJN-3, 96 h): 71 nM
IC50 ([3]; Homo sapiens, KMS-12-BM, 96 h): ~3390 nM

Cc1nscc1Nc1nccc(-c2cc(C#N)c3c(c2)[C@@](C)(CO)CN3)n1 [Compound 146]
IC50 [1]: 1.3 nM
IC50 ([2]; Homo sapiens, JJN-3, 96 h): 102 nM
IC50 ([3]; Homo sapiens, KMS-12-BM, 96 h): 589 nM

Cc1coc(Nc2nccc(-c3cc(C#N)c4c(c3)[C@@](C)(CO)CN4)n2)n1 [Compound 147]
IC50 [1]: 9.6 nM
IC50 ([2]; Homo sapiens, JJN-3, 96 h): ~436 nM
IC50 ([3]; Homo sapiens, KMS-12-BM, 96 h): ~5010 nM

Cc1nc(Nc2nccc(-c3cc(C#N)c4c(c3)[C@@](C)(CO)CN4)n2)sc1C [Compound 148]
IC50 [1]: 0.8 nM
IC50 ([2]; Homo sapiens, JJN-3, 96 h): 93 nM
IC50 ([3]; Homo sapiens, KMS-12-BM, 96 h): 282 nM

CN(CCO)C[C@]1(C)CNc2c(C#N)cc(-c3ccnc(Nc4ccn(C)n4)n3)cc21 [Compound 173]
IC50 [1]: 162 nM
IC50 ([2]; Homo sapiens, JJN-3, 96 h): 6030 nM
IC50 ([3]; Homo sapiens, KMS-12-BM, 96 h): ~6310 nM

CN(CCO)C[C@@]1(C)CNc2c(C#N)cc(-c3ccnc(Nc4ccn(C)n4)n3)cc21 [Compound 174]
IC50 [1]: 35 nM
IC50 [2]: 1550 nM
IC50 [3]: 3160 nM

Cc1cc(Nc2nccc(-c3cc(C#N)c4c(c3)[C@@](C)(CO)CN4)n2)n(CC(=O)N2CCCCC2)n1 [Compound 179]
IC50 [1]: 6.2 nM
IC50 ([2]; Homo sapiens, JJN-3, 96 h): 832 nM
IC50 ([3]; Homo sapiens, KMS-12-BM, 96 h): ~10000 nM

Cn1ccc(Nc2ncnc(-c3cc(C#N)c4c(c3)C(C)(CO)CN4)n2)n1 (stereo not drawn) [Compound 216]
IC50 [1]: 7.8 nM
IC50 ([2]; Homo sapiens, JJN-3, 96 h): 537 nM
IC50 ([3]; Homo sapiens, KMS-12-BM, 96 h): 2630 nM
